Measurements reported in article PMC12405493, “Selective ubiquitination of drug-like small molecules by the ubiquitin ligase HUWE1” (Nature Communications, 2025).

Columns and labels:
[1] = tested on: HECT domains of E6AP (UBE3A), HACE1, NEDD4, and UBE3C; test: Analytical SEC of compound ubiquitination by other HECT domains; type: biochemical, human
[2] = molecular target: T1, HUWE1^HECT (Homo sapiens, UniProt Q7Z6Z7); test: Single-turnover assay, Ub thioester transfer from E2 to HUWE1^HECT; type: biochemical; details: HECT^Δ4 variant
T1 construct: HUWE1^HECTΔ4 (residues 3993–4370); made in house
T1 sequence (Q7Z6Z7 3993-4370): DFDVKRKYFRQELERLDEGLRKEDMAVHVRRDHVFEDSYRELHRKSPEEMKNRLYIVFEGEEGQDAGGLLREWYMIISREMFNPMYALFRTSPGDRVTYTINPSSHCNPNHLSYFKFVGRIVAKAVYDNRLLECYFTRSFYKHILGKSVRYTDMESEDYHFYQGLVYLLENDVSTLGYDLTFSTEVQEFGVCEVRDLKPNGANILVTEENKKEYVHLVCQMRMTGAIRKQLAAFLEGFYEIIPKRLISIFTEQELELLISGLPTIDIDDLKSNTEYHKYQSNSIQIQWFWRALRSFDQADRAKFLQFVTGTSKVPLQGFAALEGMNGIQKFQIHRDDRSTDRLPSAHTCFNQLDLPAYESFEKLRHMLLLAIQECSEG
Procedure: (§1) E3-free multi-turnover ubiquitination reactions to monitor E1 and E2 activities contained 1 μM UBA1, 5 μM UBE2L3, 100 μM Ub, 2 mM ATP and 10 mM MgCl2 in 25 mM HEPES (pH 7.4), and 0.2 mM TCEP. Reactions were incubated at 30 °C for 10 min (or otherwise, as specified) and quenched with 50 mM EDTA, followed by the addition of SDS-loading dye. Single-turnover E2~Ub discharge assays were performed similarly to previous studies. In short, 1 μM UBA1, 5 μM UBE2L3, and 100 μM Ub were pre-incubated with 2 mM ATP and 10 mM MgCl2 in 25 mM HEPES (pH 7.4) at 30 °C for 30 min, diluted 4-fold, and quenched with 50 mM EDTA. Thereafter, 1.2 μM of the UBE2L3~Ub product was incubated with 5 μM HUWE1^HECT at 30 °C for 1 min.

[3] = molecular target: T2, HUWE1^FL (substrate MCL1) (Homo sapiens, UniProt Q7Z6Z7); test: HUWE1^FL-driven MCL1 ubiquitination reactions; type: biochemical; details: varying concentrations
T2 construct: made in house; host or cells: HEK293T (transient transfection, anti-Flag purification, SEC)
Procedure: (§2) HUWE1^HECT multi-turnover ubiquitination reactions were performed for 30 minutes (unless stated otherwise) with 200 nM UBA1, 5 μM UBE2L3 or UBE2D3 (as specified), 1 μM HUWE1^HECT and 30 μM Ub in 25 mM HEPES (pH 7.5), 100 mM NaCl, 3 mM MgCl2, and 0.5 mM TCEP. HUWE1^FL multi-turnover ubiquitination reactions included 50 nM UBA1, 2.5 μM UBE2L3, 0.05 μM HUWE1^FL, 0.5 μM MCL1 (or 0.5 μM H2B or 1 μM FOXP3) and 20 μM Ub in 20 mM HEPES (pH 7.5), 100 mM NaCl, 3 mM MgCl2, and 0.5 mM TCEP. All multi-turnover reactions were started by the addition of 1 mM ATP, incubated at 30 °C, quenched with SDS-loading dye. If not stated otherwise, HUWE1^FLautoubiquitination reactions were incubated for 20 minutes. Substrate ubiquitination reactions with MCL1 or H2B were incubated for 10 and 20 min, respectively; those with FOXP3 for 30 min. Those reactions that were monitored by fluorescence contained a fluorescent Ub tracer (IRDye 800CW maleimide; LI-COR)[55] and were monitored using an Odyssey CLx scanner (LI-COR), followed by Coomassie staining. In the fluorescence images, only those marker bands are labeled (in kDa) that are visible by fluorescence; all marker bands are labeled in the Coomassie-stained images. Statistical analyses were performed with Prism 9 v.9.3.1 (GraphPad).

[4] = tested on: colorectal cancer cells; parameters: method as in PMID 25253726; details: cited from earlier work
[5] = molecular target: T3, UBA1 (E1) / UBE2L3 (E2) (Homo sapiens, UniProt P22314+P68036); test: E1-driven Ub transfer to UBE2L3 (E3-free reaction); type: biochemical; details: Supplementary Fig. 1f, g
T3 construct: made in house
T3 sequence (P22314 whole entry): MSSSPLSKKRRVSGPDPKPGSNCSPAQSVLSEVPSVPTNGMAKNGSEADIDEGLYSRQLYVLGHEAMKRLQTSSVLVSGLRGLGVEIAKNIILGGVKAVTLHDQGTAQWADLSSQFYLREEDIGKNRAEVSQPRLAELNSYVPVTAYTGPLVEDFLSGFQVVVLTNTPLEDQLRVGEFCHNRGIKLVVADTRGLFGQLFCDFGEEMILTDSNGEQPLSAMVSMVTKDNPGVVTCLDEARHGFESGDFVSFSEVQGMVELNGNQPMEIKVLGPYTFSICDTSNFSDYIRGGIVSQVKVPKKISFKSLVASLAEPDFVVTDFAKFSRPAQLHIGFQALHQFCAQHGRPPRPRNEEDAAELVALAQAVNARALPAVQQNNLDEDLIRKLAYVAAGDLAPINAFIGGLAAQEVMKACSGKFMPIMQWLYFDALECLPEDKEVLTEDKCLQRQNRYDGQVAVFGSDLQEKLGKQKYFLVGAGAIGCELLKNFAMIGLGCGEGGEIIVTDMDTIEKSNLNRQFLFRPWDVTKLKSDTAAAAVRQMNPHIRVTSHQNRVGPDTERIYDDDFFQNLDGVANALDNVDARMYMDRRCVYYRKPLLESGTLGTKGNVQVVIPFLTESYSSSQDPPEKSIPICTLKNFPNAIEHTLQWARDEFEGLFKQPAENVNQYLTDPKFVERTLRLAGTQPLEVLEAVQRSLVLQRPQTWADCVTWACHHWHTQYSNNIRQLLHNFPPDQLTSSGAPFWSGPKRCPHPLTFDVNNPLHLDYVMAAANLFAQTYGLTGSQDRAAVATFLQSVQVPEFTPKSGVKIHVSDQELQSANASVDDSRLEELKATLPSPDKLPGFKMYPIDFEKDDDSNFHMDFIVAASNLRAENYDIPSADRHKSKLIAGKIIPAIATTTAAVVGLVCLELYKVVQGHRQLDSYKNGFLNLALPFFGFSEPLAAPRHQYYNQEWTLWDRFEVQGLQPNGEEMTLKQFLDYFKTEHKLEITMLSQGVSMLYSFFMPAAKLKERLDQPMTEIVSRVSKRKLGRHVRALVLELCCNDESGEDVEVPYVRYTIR
T3 sequence (P68036 whole entry): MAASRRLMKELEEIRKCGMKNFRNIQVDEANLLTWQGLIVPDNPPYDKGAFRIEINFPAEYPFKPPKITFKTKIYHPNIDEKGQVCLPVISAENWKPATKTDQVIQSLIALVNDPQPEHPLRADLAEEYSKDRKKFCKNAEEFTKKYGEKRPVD
Procedure: as §1

[6] = molecular target: T4, HUWE1^HECT (Homo sapiens, UniProt Q7Z6Z7); test: HUWE1^HECT multi-turnover ubiquitination reactions (fluorescent Ub tracer, SDS-PAGE); type: biochemical; details: E2 UBE2L3, varying concentrations
T4 construct: the isolated HECT domain of HUWE1 (HUWE1^HECT); made in house
T4 sequence (Q7Z6Z7 4038-4374 limits assumed): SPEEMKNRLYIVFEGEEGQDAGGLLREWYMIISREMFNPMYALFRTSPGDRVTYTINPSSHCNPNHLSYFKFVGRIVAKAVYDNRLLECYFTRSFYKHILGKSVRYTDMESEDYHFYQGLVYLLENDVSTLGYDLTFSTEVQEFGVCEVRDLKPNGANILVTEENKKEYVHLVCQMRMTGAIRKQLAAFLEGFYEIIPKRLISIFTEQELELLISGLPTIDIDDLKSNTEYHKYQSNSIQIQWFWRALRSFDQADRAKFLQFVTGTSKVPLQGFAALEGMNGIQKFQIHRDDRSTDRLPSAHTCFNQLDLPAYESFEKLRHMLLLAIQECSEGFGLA
Procedure: as §2

[7] = tested on: other HECT domains; parameters: method as in PMID 25253726; details: in vitro; cited from earlier work
[8] = tested on: HUWE1 substrates, such as MCL1; parameters: method as in PMID 25253726; details: MCL1 upon DNA damage induction; cited from earlier work
[9] = tested on: HUWE1^HECT; parameters: method as in PMID 25253726; details: in vitro; read-out: IC50 of HUWE1^HECT inhibition; cited from earlier work

SMILES | Compound ubiquitination by other HECT domains [1] | Ub transfer from the E2 to HUWE1^HECT [2] | Inhibition of HUWE1^FL-driven MCL1 ubiquitination [3] | Cytotoxic effects [4] | Ub transfer from the E1 to the E2 [5] | Inhibition of HUWE1^HECT-driven ubiquitination [6] | IC50 [7] [µM] | Stabilization of HUWE1 substrates [8] | IC50 [9] [µM]
Cc1c(C(=O)Nc2ccc(CN)cc2)ncnc1N1CCC(C#N)(c2ccccc2)CC1 [BI8622] | certain compound-directed activities were detected for all tested HECT domains | do not obstruct Ub transfer from the E2 to HUWE1^HECT | inhibit the protein ubiquitination activity of the ligase in a dose-dependent manner | selective cytotoxic effects | nor do they perturb the preceding Ub transfer from the E1 to the E2 | inhibit ubiquitination dose-dependently in the low-micromolar concentration range | > 50 | stabilize individual HUWE1 substrates under certain conditions, such as MCL1 upon DNA damage induction | 3.1
NCc1cccc(CNc2ncnc3c(N4CCN(Cc5ccccc5)CC4)ncnc23)c1 [BI8626] | certain compound-directed activities were detected for all tested HECT domains | do not obstruct Ub transfer from the E2 to HUWE1^HECT | inhibit the protein ubiquitination activity of the ligase in a dose-dependent manner | selective cytotoxic effects | nor do they perturb the preceding Ub transfer from the E1 to the E2 | inhibit ubiquitination dose-dependently in the low-micromolar concentration range | > 50 | stabilize individual HUWE1 substrates under certain conditions, such as MCL1 upon DNA damage induction | 0.9
